ChEMBL document CHEMBL1201862, “PubChem BioAssay data set” (2004)
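These data come from cells grown in 96-well plates and exposed to compound for 48 hours at five concentrations. At the GI50, growth is halved.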 Active and inactive are the calls of the source. Cut-off read from the data, not from the text of the source: active = GI50 up to about 1.1 µM and inactive = higher. Residues, ends and D or L forms follow the SMILES beside them. *: point of attachment. Boc = CC(C)(C)OC(=O)*

Tests used:
Assay in all cases: inhibition of tumour cell growth, NCI panel, 48 h
COLO 205 = system: COLO 205
EKVX = system: EKVX
HCT-116 = system: HCT-116
IGROV-1 = system: IGROV-1
K562 = system: K562
LOX IMVI = system: LOX IMVI
M14 = system: M14
NCI-H226 = system: NCI-H226
NCI-H23 = system: NCI-H23
NCI-H460 = system: NCI-H460
OVCAR-8 = system: OVCAR-8
PC-3 = system: PC-3
RXF 393 = system: RXF 393
SK-OV-3 = system: SK-OV-3
SN12C = system: SN12C
SW-620 = system: SW-620
UACC-62 = system: UACC-62
HT-29 = system: HT-29
SK-MEL-28 = system: SK-MEL-28
HCC 2998 = system: HCC 2998

Measured: GI50

c1ccc(-c2ccc(/N=N/N3CCCC3)cc2)cc1
inactive: COLO 205 > 100 µM | EKVX > 100 µM | HCT-116 > 100 µM | IGROV-1 > 100 µM | K562 > 100 µM | LOX IMVI > 100 µM | M14 > 100 µM | NCI-H226 > 100 µM | NCI-H23 > 100 µM | NCI-H460 > 100 µM | OVCAR-8 > 100 µM | PC-3 > 100 µM | RXF 393 > 100 µM | SK-OV-3 > 100 µM | SN12C > 100 µM | SW-620 > 100 µM | UACC-62 > 100 µM

Nc1nc(N)c(Cn2ccnc2)c(O)n1
inactive: COLO 205 > 100 µM | EKVX > 100 µM | HCT-116 > 100 µM | HT-29 > 100 µM | IGROV-1 > 100 µM | LOX IMVI > 100 µM | M14 > 100 µM | NCI-H226 > 100 µM | NCI-H23 > 100 µM | NCI-H460 > 100 µM | OVCAR-8 > 100 µM | PC-3 > 100 µM | RXF 393 > 100 µM | SK-OV-3 > 100 µM | SN12C 5.15 µM | UACC-62 > 100 µM
active: K562 0.049 µM

COc1ccc(Cc2ccc3nc(O)cc(C)c3c2)cc1S(=O)(=O)O
inactive: COLO 205 > 100 µM | EKVX > 100 µM | HCT-116 > 100 µM | HT-29 > 100 µM | IGROV-1 > 100 µM | K562 > 100 µM | LOX IMVI > 100 µM | M14 > 100 µM | NCI-H226 > 100 µM | NCI-H23 > 100 µM | NCI-H460 > 100 µM | OVCAR-8 > 100 µM | PC-3 > 100 µM | RXF 393 > 100 µM | SK-MEL-28 > 100 µM | SK-OV-3 > 100 µM | SN12C > 100 µM | SW-620 > 100 µM | UACC-62 > 100 µM

COC(=O)C(Cc1c[nH]c2ccccc12)NC(=O)C(Cc1c[nH]c2ccccc12)NC(=O)C(Cc1c[nH]c2ccccc12)NC(=O)C(Cc1c[nH]c2ccccc12)NC(=O)OC(C)(C)C (stereo not given) (Boc-WWWW-OMe; configuration not given here)
inactive: HCC 2998 20.5 µM | HCT-116 13.9 µM | HT-29 22.9 µM | IGROV-1 35.3 µM | K562 4.8 µM | LOX IMVI 12.7 µM | M14 30.1 µM | NCI-H226 45.7 µM | NCI-H23 25.1 µM | NCI-H460 24.9 µM | OVCAR-8 26.9 µM | PC-3 19.5 µM | SK-MEL-28 18.2 µM | SN12C > 100 µM | SW-620 6.07 µM | UACC-62 15.6 µM

O=C(O)CN1CCNCCN(CC(=O)O)CCN(CC(=O)O)CCNCC1
inactive: COLO 205 64.1 µM | EKVX > 100 µM | HCT-116 35.2 µM | HT-29 26.7 µM | IGROV-1 > 100 µM | K562 85.3 µM | LOX IMVI 91.2 µM | M14 > 100 µM | NCI-H226 > 100 µM | NCI-H460 68.7 µM | OVCAR-8 96.2 µM | PC-3 > 100 µM | SK-MEL-28 > 100 µM | SK-OV-3 > 100 µM | SN12C > 100 µM | SW-620 41.5 µM | UACC-62 84.7 µM

S=P(C1CCCCC1)(C1CCCCC1)C(c1cccnc1)N1CCCC1 (stereo not given)
inactive: COLO 205 18.9 µM | EKVX 19.1 µM | HCT-116 18.5 µM | HT-29 33.8 µM | IGROV-1 17.9 µM | K562 21.2 µM | LOX IMVI 7.18 µM | M14 18.4 µM | NCI-H226 19.4 µM | NCI-H23 18.7 µM | NCI-H460 20.2 µM | OVCAR-8 23.8 µM | PC-3 18.3 µM | RXF 393 18.6 µM | SK-MEL-28 > 100 µM | SK-OV-3 81.8 µM | SN12C 18.2 µM | SW-620 36.2 µM | UACC-62 22.5 µM

O=c1cc(NCC2CCCCC2)[nH]c(=O)[nH]1
inactive: COLO 205 > 100 µM | EKVX > 100 µM | HCC 2998 > 100 µM | HCT-116 > 100 µM | IGROV-1 > 100 µM | K562 > 100 µM | LOX IMVI > 100 µM | M14 > 100 µM | NCI-H226 > 100 µM | NCI-H23 > 100 µM | NCI-H460 > 100 µM | OVCAR-8 > 100 µM | PC-3 > 100 µM | RXF 393 > 100 µM | SK-MEL-28 > 100 µM | SN12C > 100 µM | SW-620 > 100 µM

COc1ccc(C(=O)/C=C2\Nc3cccnc3N\C2=C/C(=O)c2ccc(OC)cc2)cc1
inactive: COLO 205 60.5 µM | EKVX 20.8 µM | HCC 2998 23.9 µM | HCT-116 15.2 µM | HT-29 14.5 µM | IGROV-1 5.11 µM | K562 57.9 µM | LOX IMVI 13.9 µM | M14 20.9 µM | NCI-H226 4.8 µM | NCI-H23 13.5 µM | NCI-H460 9.18 µM | OVCAR-8 14.3 µM | PC-3 > 100 µM | SK-MEL-28 16.9 µM | SK-OV-3 13 µM | SN12C 12.2 µM | UACC-62 17.3 µM

COC(=O)c1c(O)ccc2c1c1c(n2CCc2ccccc2)C(=O)c2ccccc2C1
inactive: COLO 205 14.6 µM | HCT-116 15.3 µM | HT-29 24.4 µM | IGROV-1 19.6 µM | K562 37.6 µM | LOX IMVI 30.1 µM | M14 22.3 µM | NCI-H226 16.3 µM | NCI-H23 20.7 µM | NCI-H460 16.7 µM | OVCAR-8 36.3 µM | PC-3 16.8 µM | RXF 393 13.3 µM | SK-MEL-28 19.5 µM | SK-OV-3 22.5 µM | SN12C 14.7 µM | SW-620 30.1 µM | UACC-62 14.4 µM

Cc1ccc(N(Cc2ccccc2)Cc2ccccc2)cc1
inactive: COLO 205 24.3 µM | EKVX 35.8 µM | HCT-116 28.6 µM | HT-29 29.9 µM | IGROV-1 23.7 µM | K562 55.8 µM | LOX IMVI 34 µM | M14 55.2 µM | NCI-H226 > 100 µM | NCI-H23 > 100 µM | NCI-H460 > 100 µM | OVCAR-8 > 100 µM | PC-3 48.4 µM | RXF 393 59 µM | SK-MEL-28 54.2 µM | SK-OV-3 > 100 µM | SN12C 72.3 µM | SW-620 46.3 µM | UACC-62 82.4 µM

COC(=O)/C=C/c1cnc2c(c1)oc(=O)n2C
inactive: COLO 205 > 100 µM | EKVX > 100 µM | HCC 2998 > 100 µM | HCT-116 > 100 µM | HT-29 > 100 µM | IGROV-1 > 100 µM | K562 > 100 µM | LOX IMVI > 100 µM | M14 > 100 µM | NCI-H226 > 100 µM | NCI-H23 > 100 µM | NCI-H460 > 100 µM | OVCAR-8 > 100 µM | PC-3 > 100 µM | SK-MEL-28 > 100 µM | SK-OV-3 > 100 µM | SN12C > 100 µM | SW-620 > 100 µM | UACC-62 > 100 µM

O=C(Cn1c(=O)oc2ccc(C(=O)c3ccccc3Cl)cc21)c1ccc([N+](=O)[O-])cc1
inactive: COLO 205 20.6 µM | EKVX 24.2 µM | HCC 2998 17.9 µM | HCT-116 17.8 µM | HT-29 24.2 µM | IGROV-1 23.6 µM | K562 14.9 µM | LOX IMVI 17 µM | M14 18.4 µM | NCI-H226 34.2 µM | NCI-H23 25.4 µM | NCI-H460 18.4 µM | OVCAR-8 24.7 µM | PC-3 22.8 µM | SK-MEL-28 37.8 µM | SK-OV-3 21.9 µM | SN12C 24.5 µM | SW-620 26.8 µM | UACC-62 12 µM

O=[N+]([O-])c1ccc(Cl)c(CNc2ncnc3c2ncn3C2CCCCO2)c1 (stereo not given)
inactive: COLO 205 42.2 µM | EKVX 77.1 µM | HCT-116 43.2 µM | HT-29 32.4 µM | IGROV-1 58.2 µM | K562 31.4 µM | LOX IMVI 56.4 µM | M14 28.2 µM | NCI-H226 43.2 µM | NCI-H23 31.8 µM | NCI-H460 15.3 µM | OVCAR-8 53.6 µM | PC-3 39.3 µM | RXF 393 14.9 µM | SK-MEL-28 89.5 µM | SK-OV-3 36.5 µM | SN12C 29.6 µM | SW-620 35 µM | UACC-62 22.8 µM

O=C1/C(=C/c2ccco2)N=C2Sc3c([nH]cnc3=O)N12
inactive: COLO 205 > 100 µM | EKVX > 100 µM | HCT-116 > 100 µM | HT-29 > 100 µM | IGROV-1 > 100 µM | K562 > 100 µM | LOX IMVI > 100 µM | M14 > 100 µM | NCI-H226 > 100 µM | NCI-H23 > 100 µM | OVCAR-8 > 100 µM | PC-3 > 100 µM | RXF 393 > 100 µM | SK-MEL-28 > 100 µM | SK-OV-3 > 100 µM | SN12C > 100 µM | SW-620 > 100 µM

CC1OC(n2cc(F)c(=O)[nH]c2=O)C=CC1O (stereo not given)
inactive: COLO 205 > 100 µM | EKVX > 100 µM | HCC 2998 > 100 µM | HCT-116 > 100 µM | HT-29 > 100 µM | IGROV-1 > 100 µM | K562 > 57.8 µM | LOX IMVI > 43.2 µM | M14 > 100 µM | NCI-H226 > 100 µM | NCI-H23 > 100 µM | NCI-H460 > 100 µM | OVCAR-8 > 100 µM | RXF 393 > 100 µM | SK-MEL-28 > 100 µM | SK-OV-3 > 100 µM | SN12C > 100 µM | SW-620 > 46 µM | UACC-62 > 100 µM
